Experiments:
[1] = test system: rat cortical neurons cultured in the absence of B27; assay: Cortical neuron survival assay with B27 withdrawal (MTT); assay type: cell-based; conditions: for cell survival of cortical neurons in the absence of B27 (MTT): 30 μM, pre-treated 24 hours (FIG. 15); for concentration showing neuroprotective effect in the absence of B27 (MTT): primary cortical neurons 7DIV, dose-dependent study 1-30 μM
Method: FIG. 2. Adelostemma gracillimum refined fraction promotes rat cortical neuron survival against B27 withdrawal. Cortical neurons isolated from embryonic day 18 rats were cultured in Neurobasal medium supplemented with 2 % B27. […] A MTT assay was performed 24 hours later. Cell survival is presented as a percentage compared to a DMSO control in the presence of B27 (“CTL with B27”). Assays were conducted in triplicate and repeated at least twice. *=P<0.05.
Primary cortical neurons were cultured in Neurobasal medium and supplemented with B27, a proprietary formula of Life Technologies. The combination of Neurobasal medium and B27 provides a stable growth environment for primary neurons to maturity in vitro. Neurons undergo apoptosis or cell death in the absence of B27. To study the neuroprotective effect of Adelostemma gracillimum refined fraction, neurons of 7DIV were treated with AG-0 and cell survival was measured as mitochondrial activity by the MTT assay.
The cells were then washed with Hanks' solution twice and replaced with test samples that were serial diluted in Neurobasal medium. A tetrazole, 3-(4,5-Dimethylthiazol-2-yl)-2,5-diphenyltetrazolium bromide (MTT, 5 mg/ml) was added to the medium at a ratio of 1:10 after a 2-day incubation. MTT is reduced by living cells into purple formazan and further solubilized in 20% SDS solution; therefore, the colored solution was measured by spectrophotometer and cell viability was quantified.

[2] = test system: phosphorylated ERK, CREB, Akt, P38, MEK in cortical neurons; assay: Western blot detection of signaling proteins in cortical neurons; assay type: cell-based, rat; conditions: cortical neurons 7DIV
[3] = test system: cortical neurons in the absence of B27; assay: Immunocytochemical analysis of neurons after B27 withdrawal; assay type: cell-based, rat; conditions: 30 μM, pre-treated 24 hours
Method: FIG. 10. Immunofluorescence staining of cortical neurons pretreated with Adelostemma gracillimum refined fraction or fraction AG-3 in the absence of B27. […] Cortical neuronal cultures of 7DIV were pre-treated with AG-0 (30 μg/mL), AG-3 (30 μg/mL), or BDNF (50 ng/mL) for 24 hours, then the medium was changed to one lacking B27. Cultures were fixed with 4% paraformaldehyde, immunostained with beta-tubulin type III antibody, and visualized with FITC-conjugated anti-mouse antibody. Cell bodies were highlighted by DAPI staining. DMSO was used as a solvent control. Images are shown at 40× magnification.
FIG. 21. Immunofluorescence staining of GAG-C27-treated cortical neurons in the absence of B27. Cortical neuronal cultures of 7DIV were pre-treated with AG-0 (30 μg/mL), GAG-C27 (30 μM), or BDNF (50 ng/mL) for 24 hours, after which the medium was changed to one lacking B27. Cultures were fixed with 4% paraformaldehyde, immunostained with beta-tubulin type III antibody, and visualized with FITC-conjugated anti-mouse antibody. Cell bodies were highlighted by DAPI staining. DMSO was used as a solvent control. […]
Cortical neurons were plated on 35-mm dishes (NUNC) at a density of 1×10^6 cells per plate using Neurobasal medium (Invitrogen) supplemented with 2% B27 (Invitrogen). […] Cell morphology was then analyzed using a fluorescence microscope with a 40× objective (DMRA; Leica). […]

hippocampal neurons = assay: Quantification of spine (dendritic spine morphology); assay type: cell-based, rat; conditions: hippocampal neurons 14DIV, 10 μM, 24 hr, vs DMSO
Method: FIG. 38. GAG-C14 modulates spine morphogenesis. Hippocampal neurons were transfected with enhanced green fluorescent protein (EGFP) construct at 7DIV by calcium phosphate precipitation. The GFP-expressing neurons at 14DIV were then treated with 10 μM GAG-C14 or DMSO vehicle control for 24 hr. The dendritic spine morphology of hippocampal neurons was examined by confocal microscopy.
Cultured hippocampal neurons were seeded on 18 mm coverslips coated with poly-D-lysine in 12-well-plates (Falcon). The neurons were then grown in Neurobasal medium (Invitrogen) supplemented with 2% B27 (Invitrogen) and 0.5 mM glutamine. To visualize the morphology of dendritic spines, the neurons were transfected with GFP DNA construct between 7-9 DIV by using calcium phosphate precipitation. To examine the development of dendritic spines, the neurons were treated with the test compound on 14 DIV. The neurons were then fixed with 4% paraformaldehyde and morphology was examined using confocal microscopy. To quantify spine density in cultured hippocampal neurons, a stack of images (z step, 0.5 μm) was collected using a 60× objective. Images were merged and analyzed using MetaMorph software (Universal Imaging Corp). Dendritic spines, defined as protrusions at least 0.5 μm from the dendritic surface, were scored and expressed as per μm length of dendrite. Three dendrites from each neuron was randomly selected and quantified in a double-blinded manner. For each experimental condition, twenty to thirty neurons were analyzed from 3 independent experiments. Data was presented as mean±SEM.

[4] = test system: cyclic AMP response (CRE) element; assay: CRE-dependent transcription assay (luciferase); assay type: cell-based, rat; conditions: hippocampal neurons 12DIV, 50 μM, 6 hours
Method: FIG. 41. GAG compounds enhance CRE-dependent transcription activity. GAG-C14 (a), GAG-C53 (b), GAG-C63 (c), GAG-C69 (d), GAG-C84 (e), GAG-C111 (f), GAG-C122 (g), GAG-C123 (h), and GAG-C129 (i) induce CRE-dependent transcriptional activity in cultured hippocampal neurons. On the day of cell seeding, hippocampal neurons were transfected with a firefly luciferase reporter plasmid containing cyclic AMP response (CRE)-element. The cells at 12 DIV were then treated with 50 μM of AG compounds for 6 hours. Data are mean±SEM (n=3-4), *=P<0.05, **=P<0.01, and ***=P<0.005 versus vehicle-treated cells (0 μM), student's t test.
Cultured hippocampal neurons were transfected with a firefly luciferase reporter plasmid containing a cyclic AMP response (CRE) element. At 12DIV, the cells were treated with 50 μM of compound for 6 hours, then CRE-dependent transcription activity was assayed by measuring luciferase levels.
Freshly isolated embryonic cortical neurons were transfected with a luciferase reporter gene (Cre-Luc) linked to CREB activation following the ACM lipofectamine method using Lipofectamine 2000, a cationic liposome based reagent (Invitrogen). […] Transfection was performed using 1 μL Lipofectamine 2000 and 0.4 μg DNA per well. Neurons were then treated with test samples for time periods of 6 hours. After treatment, the cells were washed with ice-cold DPBS and 100 μL of 1× luciferase lysis buffer (Promega) was added. The plates were placed in −20° C. to freeze the cells, after which they were thawed to facilitate lysis. The lysates were transferred onto white bottom plates and assayed for renilla luciferase using the luciferase assay kit (Promega). Increased CREB activation in the neurons leads to an enhanced luciferase production and this was quantified using a Promega GloMax™ 96 microplate luminometer. […] BDNF and rolipram were used as positive controls.

CREB promoter = CREB promoter assay (luciferase) in cortical neurons; assay type: cell-based, rat; conditions: cortical neurons 7DIV, 6 hours incubation
Method: FIG. 26. GAG-C77 increases CREB-promoter activity in primary cortical neurons. Primary cortical neuronal cultures (7DIV) transfected with a luciferase-CREB promoter construct were treated with GAG-C69 or GAG-C77 (concentration depicted in [μM]). Cell lysates were collected after 6 hours incubation and luciferase activity was measured. BDNF [ng/mL] and rolipram [μM] were used as positive controls. Assays were conducted in triplicate. *=P<0.05; **=P<0.005.
Freshly isolated embryonic cortical neurons were transfected with a luciferase reporter gene (Cre-Luc) linked to CREB activation following the ACM lipofectamine method using Lipofectamine 2000, a cationic liposome based reagent (Invitrogen). […] Transfection was performed using 1 μL Lipofectamine 2000 and 0.4 μg DNA per well. Neurons were then treated with test samples for time periods of 6 hours. After treatment, the cells were washed with ice-cold DPBS and 100 μL of 1× luciferase lysis buffer (Promega) was added. The plates were placed in −20° C. to freeze the cells, after which they were thawed to facilitate lysis. The lysates were transferred onto white bottom plates and assayed for renilla luciferase using the luciferase assay kit (Promega). Increased CREB activation in the neurons leads to an enhanced luciferase production and this was quantified using a Promega GloMax™ 96 microplate luminometer. […]

**Q.** “3-O-β-D-Cymaropyranose-(1→4)-β-D-Digitoxopyranose-12-cis-cinnamyl-20-acetyl-8,14-seco-sacrostin [GAG-C27]” was tested. Which “cell survival of cortical neurons in the absence of B27 (MTT)” value [1] did it give?
**A.** The value was “promoted cell survival”.

**Q.** What about the “concentration showing neuroprotective effect in the absence of B27 (MTT)” value [1] of the same compound?
**A.** The value was 30 µM.

**Q.** And the AKT protein phosphorylation ([2]; 10 μM)?
**A.** The AKT protein phosphorylation was “no effect”.

**Q.** What about the “ERK phosphorylation time course” value ([2]; 10 μM) of the same compound?
**A.** The value was “induced ERK phosphorylation in cortical neurons after 15 min, which was sustained for 60 min”.

**Q.** And the “phosphorylated P38” value ([2]; 10 μM, after 30 min of incubation)?
**A.** Its value is “reduction”.

**Q.** What about the “protection from cell death after B27 withdrawal (immunofluorescence staining)” value [3] of the same compound?
**A.** The value was “protected cortical neurons from cell death”.

**Q.** What does the source list for `CCCCCCCCCCCCCCCC(=O)OCC(O)CO` (centres unmarked) [GAG-C14, 2,3-dihydroxypropyl palmitate]?
**A.** AKT protein phosphorylation ([2]; 10 μM): no observable effect; ERK phosphorylation time course ([2]; 10 μM): induced ERK phosphorylation in cortical neurons after 15 min and the effect remained for 90 min; frequency / percentage of filopodia (hippocampal neurons): reduction in the frequency of filopodia; percentage of large spines (head>1 μm) (hippocampal neurons): significantly increased; spine density (hippocampal neurons): increase in spine density; CRE-dependent transcription activity (luciferase) [4]: enhances CRE-dependent transcription

**Q.** Which results are given for `COc1cc(C2Oc3c(OC)cc(C=O)cc3C2C)ccc1O` (centres unmarked) [GAG-C77, 4-hydroxyl-3,3′-dimethyoxyl-4″,7-epoxy-8,5′-oxyneoligna-7′-al]?
**A.** cell survival of cortical neurons in the absence of B27 (MTT) [1]: promoted cell survival; concentration showing neuroprotective effect in the absence of B27 (MTT) [1]: 10 to 30 µM; ERK phosphorylation time course ([2]; 30 μM): significantly induced ERK phosphorylation in cortical neurons from 15 min and persistently to 180 min; CREB phosphorylation ([2]; 30 μM, 15 min of incubation): induced CREB phosphorylation; luciferase activity driven by the CREB promoter (CREB promoter): significantly induce luciferase activity
